In PMC11285948, “The effects of CYP2B6 inactivators on the metabolism of ciprofol” (PLOS ONE, 2024):
Values joined by “and” are separate entries in the source; they are usually repeats but may differ in a detail not shown here. Equal entries are not always repeated.

Columns and labels:
[1] = clinical trials; cited from earlier work
[2] = test system: rat liver microsomes (RLMs); assay: Ciprofol metabolism in RLM incubation system (incubation time, protein concentration, enzyme kinetics); type: in vitro ADME; conditions: for reduction of ciprofol ΔC (Enzymatic reaction kinetics): ΔC1-ΔC3 and Mean; for ciprofol concentration in incubation system (Incubation time) / ciprofol concentration in incubation system (Liver microsomal protein concentration): C1-C3 and Mean; for ciprofol concentration in incubation system (Liver microsomal protein concentration): RLMs, ciprofol 25 μg·mL^-1, 40 min
Protocol: The volume of the incubation system was 200 μL and included 2 μL of substrate (ciprofol), 8 μL of rat liver microsomes (RLMs) or 6 μL of human liver microsomes (HLMs), 12 μL of NADPH generation system of solution (solution A 10 μL, solution B 2 μL), and the remaining volume was PBS. The incubation was performed in a water bath at a constant temperature of 37°C, and each sample was incubated three times in parallel.
The incubation system was removed from the water bath, and the reaction was terminated immediately by adding 800 μL of reaction termination solution (acetonitrile solution containing 5 μg·mL^-1 D6-ciprofol at 4°C). The mixture was vortexed for 2 min and centrifuged for 15 min, after which the supernatant was transferred to an autosampler vial for HPLC-MS/MS detection.
The concentrations of ciprofol and liver microsomal proteins in the RLM incubation system were set at 25 μg·mL^-1 and 0.8 mg·mL^-1, respectively, whereas those in the HLM incubation system were set at 40 μg·mL^-1 and 0.6 mg·mL^-1, respectively. Samples were obtained and assayed after 0, 10, 20, 30, 40, 60, 80, 100 and 120 min of incubation, and the optimum incubation time was determined according to the decreasing trend in ciprofol concentration.
The ciprofol concentrations in the RLM and HLM incubation systems were set at 25 and 40 μg·mL^-1, respectively. The liver microsomal protein concentrations were 0, 0.1, 0.2, 0.4, 0.6, 0.8 and 1.0 mg·mL^-1. The optimal protein concentration in the incubation system was determined based on the reduction of ciprofol (ΔC) after 40 min of incubation in RLMs and 60 min in HLMs.
The liver microsomal protein concentrations in the RLM incubation system and the HLM incubation system were 0.8 mg·mL^-1 and 0.6 mg·mL^-1, and the cells were incubated for 40 min and 60 min, respectively. The ciprofol concentrations in the incubation system were set at 4, 8, 16, 32, 48 and 80 μg·mL^-1, and the kinetic parameters of ciprofol metabolism were investigated based on ΔC values at different initial ciprofol concentrations (C0).
The substrate elimination method was employed in this study, and GraphPad Prism 8.0.2 software was used for statistical processing, including determination of the kinetic parameters of ciprofol metabolism and the IC50 values of psoralen and clopidogrel for ciprofol metabolism. The maximum velocity (Vmax), Michaelis constant (Km) and intrinsic clearance (CLint) were calculated using the […]: V=Vmax×[S]/Km+[S] CLint=Vmax/Km

[3] = test system: typical substrates of CYP1A2, CYP2B6, and CYP2C19; conditions: IVIVE and PBPK simulations; ref Hou et al. 9; cited from earlier work

CC(C)c1cccc([C@H](C)C2CC2)c1O [ciprofol]
incidence of pain on injection relative to that caused by propofol [1]: 1/10 | Km of ciprofol metabolism ([2]; RLMs 0.8 mg·mL^-1, 40 min): 25.11 µg/mL | Vmax of ciprofol metabolism ([2]; RLMs 0.8 mg·mL^-1, 40 min): 14.06 ng·min^-1·mg protein^-1 | reduction of ciprofol ΔC (Enzymatic reaction kinetics) ([2]; RLMs 0.8 mg·mL^-1, 40 min, initial ciprofol C 4 μg/mL): 2.12 µg/mL and 1.71 µg/mL and 2.14 µg/mL and 1.99 µg/mL | reduction of ciprofol ΔC (Enzymatic reaction kinetics) ([2]; RLMs 0.8 mg·mL^-1, 40 min, initial ciprofol C 8 μg/mL): 3.40 µg/mL and 3.72 µg/mL and 3.90 µg/mL and 3.68 µg/mL | reduction of ciprofol ΔC (Enzymatic reaction kinetics) ([2]; RLMs 0.8 mg·mL^-1, 40 min, initial ciprofol C 16 μg/mL): 5.07 µg/mL and 6.04 µg/mL and 4.94 µg/mL and 5.35 µg/mL | reduction of ciprofol ΔC (Enzymatic reaction kinetics) ([2]; RLMs 0.8 mg·mL^-1, 40 min, initial ciprofol C 32 μg/mL): 7.10 µg/mL and 8.64 µg/mL and 7.63 µg/mL and 7.79 µg/mL | reduction of ciprofol ΔC (Enzymatic reaction kinetics) ([2]; RLMs 0.8 mg·mL^-1, 40 min, initial ciprofol C 48 μg/mL): 9.57 µg/mL and 8.62 µg/mL and 8.97 µg/mL and 9.05 µg/mL | reduction of ciprofol ΔC (Enzymatic reaction kinetics) ([2]; RLMs 0.8 mg·mL^-1, 40 min, initial ciprofol C 80 μg/mL): 10.20 µg/mL and 11.72 µg/mL and 10.73 µg/mL and 10.88 µg/mL | ciprofol concentration in incubation system (Incubation time) ([2]; RLMs 0.8 mg·mL^-1, ciprofol 25 μg·mL^-1, T 0 min): 25.04 µg/mL and 26.05 µg/mL and 27.04 µg/mL and 26.04 µg/mL | ciprofol concentration in incubation system (Incubation time) ([2]; RLMs 0.8 mg·mL^-1, ciprofol 25 μg·mL^-1, T 10 min): 21.96 µg/mL and 25.48 µg/mL and 25.19 µg/mL and 24.21 µg/mL | ciprofol concentration in incubation system (Incubation time) ([2]; RLMs 0.8 mg·mL^-1, ciprofol 25 μg·mL^-1, T 20 min): 20.63 µg/mL and 19.64 µg/mL and 23.74 µg/mL and 21.34 µg/mL | ciprofol concentration in incubation system (Incubation time) ([2]; RLMs 0.8 mg·mL^-1, ciprofol 25 μg·mL^-1, T 30 min): 17.46 µg/mL and 18.48 µg/mL and 22.67 µg/mL and 19.53 µg/mL | ciprofol concentration in incubation system (Incubation time) ([2]; RLMs 0.8 mg·mL^-1, ciprofol 25 μg·mL^-1, T 40 min): 16.32 µg/mL and 16.15 µg/mL and 19.54 µg/mL and 17.34 µg/mL | ciprofol concentration in incubation system (Incubation time) ([2]; RLMs 0.8 mg·mL^-1, ciprofol 25 μg·mL^-1, T 60 min): 15.01 µg/mL and 16.57 µg/mL and 18.99 µg/mL and 16.86 µg/mL | ciprofol concentration in incubation system (Incubation time) ([2]; RLMs 0.8 mg·mL^-1, ciprofol 25 μg·mL^-1, T 80 min): 13.80 µg/mL and 14.14 µg/mL and 18.20 µg/mL and 15.38 µg/mL | ciprofol concentration in incubation system (Incubation time) ([2]; RLMs 0.8 mg·mL^-1, ciprofol 25 μg·mL^-1, T 100 min): 12.48 µg/mL and 12.69 µg/mL and 17.81 µg/mL and 14.32 µg/mL | ciprofol concentration in incubation system (Incubation time) ([2]; RLMs 0.8 mg·mL^-1, ciprofol 25 μg·mL^-1, T 120 min): 11.61 µg/mL and 11.81 µg/mL and 16.86 µg/mL and 13.43 µg/mL | ciprofol concentration in incubation system (Liver microsomal protein concentration) ([2]; Cprotein 0 mg/mL): 24.55 µg/mL and 25.68 µg/mL and 26.29 µg/mL and 25.50 µg/mL | ciprofol concentration in incubation system (Liver microsomal protein concentration) ([2]; Cprotein 0.1 mg/mL): 23.43 µg/mL and 22.66 µg/mL and 24.40 µg/mL and 23.50 µg/mL | ciprofol concentration in incubation system (Liver microsomal protein concentration) ([2]; Cprotein 0.2 mg/mL): 21.66 µg/mL and 22.34 µg/mL and 19.74 µg/mL and 21.25 µg/mL | ciprofol concentration in incubation system (Liver microsomal protein concentration) ([2]; Cprotein 0.4 mg/mL): 19.22 µg/mL and 19.23 µg/mL and 17.57 µg/mL and 18.67 µg/mL | ciprofol concentration in incubation system (Liver microsomal protein concentration) ([2]; Cprotein 0.6 mg/mL): 19.49 µg/mL and 17.16 µg/mL and 15.28 µg/mL and 17.31 µg/mL | ciprofol concentration in incubation system (Liver microsomal protein concentration) ([2]; Cprotein 0.8 mg/mL): 18.46 µg/mL and 15.72 µg/mL and 14.74 µg/mL and 16.31 µg/mL | ciprofol concentration in incubation system (Liver microsomal protein concentration) ([2]; Cprotein 1 mg/mL): 17.05 µg/mL and 19.78 µg/mL and 13.60 µg/mL and 16.81 µg/mL | predicted drug-drug interactions with typical substrates of CYP1A2, CYP2B6, and CYP2C19 [3]: did not cause drug‒drug interactions
